Legend:
PCTK3 = target: T1, PCTK3 (Homo sapiens, UniProt Q07002); assay: KinomeScan; format: binding; details: read-out: % Control
T1 construct: purchased DiscoveRx

CXCR2 = target: T2, CXCR2 (Homo sapiens, UniProt P25025); assay: GPCR Profiler; format: cell-based
T2 construct: host or cells: Chem-1 cells with Gα15

CaS = target: T3, CaS (Homo sapiens, UniProt P41180); assay: GPCR Profiler; format: cell-based
T3 construct: host or cells: Chem-1 cells with promiscuous Gα15

CDK9 = CDK9 (Homo sapiens, UniProt P50750); assay: KinomeScan; format: binding; details: read-out: % Control
MAP3K15 = target: T4, MAP3K15 (Homo sapiens, UniProt Q6ZN16); assay: KinomeScan; format: binding; details: read-out: % Control
T4 construct: purchased DiscoveRx (Fremont, CA)

EPHB6 = target: T5, EPHB6 (Homo sapiens, UniProt O15197); assay: KinomeScan; format: binding; details: read-out: % Control
T5 construct: purchased DiscoveRx (Fremont, CA)

FLT4 = target: T6, FLT4 (Homo sapiens, UniProt P35916); assay: KinomeScan; format: binding; details: read-out: % Control
T6 construct: purchased DiscoveRx (Fremont, CA)

[1] = target: T7, RPS6KA5(Kin.Dom.2-C-terminal) (Homo sapiens, UniProt O75582); assay: KinomeScan; format: binding; details: read-out: % Control
T7 construct: RPS6KA5(Kin.Dom.2-C-terminal); purchased DiscoveRx (Fremont, CA)

S1P2 = target: T8, S1P2 (Homo sapiens, UniProt O95136); assay: GPCR Profiler; format: cell-based
T8 construct: host or cells: Chem-1 cells with Gα15

EGFR(L858R, T790M) = target: T9, EGFR(L858R, T790M) (Homo sapiens, UniProt P00533, L858R/T790M); assay: KinomeScan; format: binding; details: read-out: % Control
T9 construct: purchased DiscoveRx (Fremont, CA), KinomeScan service

PIPSK1A = target: T10, PIPSK1A (Homo sapiens, UniProt Q99755); assay: KinomeScan; format: binding; details: read-out: % Control
T10 construct: purchased DiscoveRx (Fremont, CA)

P2Y11 = target: T11, P2Y11 (Homo sapiens, UniProt Q96G91); assay: GPCR Profiler; format: cell-based
T11 construct: host or cells: Chem-1 cells expressing Gα15

EGFR = target: T12, EGFR (Homo sapiens, UniProt P00533); assay: KinomeScan; format: binding; details: read-out: % Control
T12 construct: purchased DiscoveRx (Fremont, CA), KinomeScan service

GPR41 = target: T13, GPR41 (Homo sapiens, UniProt O14843); assay: GPCR Profiler; format: cell-based
T13 construct: host or cells: Chem-1 cells with promiscuous Gα15

OT = target: T14, OT (Homo sapiens, UniProt P30559); assay: GPCR Profiler; format: cell-based
T14 construct: host or cells: Chem-1 cells expressing Gα15

[2] = target: T15, ABL1(F317I)-phosphorylated (Homo sapiens, UniProt P00519, F317I); assay: KinomeScan; format: binding; details: read-out: % Control
T15 construct: purchased DiscoveRx

FAK = target: T16, FAK (Homo sapiens, UniProt Q05397); assay: KinomeScan; format: binding; details: read-out: % Control
T16 construct: purchased DiscoveRx (Fremont, CA)

GRK1 = target: T17, GRK1 (Homo sapiens, UniProt Q15835); assay: KinomeScan; format: binding; details: read-out: % Control
T17 construct: purchased DiscoveRx (Fremont, CA)

[3] = target: T18, RSK4(Kin Dom.1-N-terminal) (Homo sapiens, UniProt Q9UK32); assay: KinomeScan; format: binding; details: read-out: % Control
T18 construct: RSK4(Kin Dom.1-N-terminal); purchased DiscoveRx (Fremont, CA)

U87 [4] = assay: Western blot (TFRC, HO-1, cleaved caspase 3); format: cell-based, human
Method: Using Pierce™ BCA Protein Assay Kit (ThermoFisher Scientific™), protein concentrations were determined for each sample following manufacturing protocol. Gel electrophoresis was conducted on NuPAGE™ 4-12% Bis-Tris gels (Invitrogen™) using 20 ug of total protein per sample. Proteins were transferred to PVDF membranes by semi-dry transfer. Membranes were blocked using Intercept® (PBS) Blocking Buffer (LI-COR™) for one hour at room temperature on a tilting shaker. Primary antibodies in 5% non-fat dry milk were added to the membranes for overnight incubation at 4° C. on a rotating shaker. Primary antibodies included transferrin receptor (TFRC), heme-oxygenase 1 (HO-1), and cleaved caspase 3 with GAPDH and α-tubulin used as normalization controls. The next day, membranes were washed in three, five-minute intervals with PBST (Tween 0.5%). Corresponding secondary HRP-conjugated antibodies in 5% non-fat dry milk were added to incubate at room temperature for one hour on a tilting shaker. The membranes were washed with PBST in four, five-minute intervals before protein visualization using Radiance Q (Azure Biosystems™) on Bio-Rad™ ChemiDoc™ MP Imaging System. Protein quantification was completed in triplicate using Fiji software package.

[5] = tested on: 6 independent patient derived lines (PDX and Neurospheres); assay: 2D monolayer viability (Cell Titer-Glo); format: cell-based; details: Homo sapiens; range over the 6 lines; read-out: LC50 (the source's name)
Method: GBM neurospheres and low passage PDX models were plated in 96-well plates at 10,000 cells per well in 50 μL of neural stem cell media. The next day, the cells were treated with OGM2 compounds at the indicated concentrations, in triplicates, by adding an equal volume of medium containing 2× the final concentration of compound. Following 72 hours incubation under standard cell culture conditions, relative cell number was assessed using Cell Titer-Glo Luminescent Cell Viability Assay (Promega™) following the manufacturer's instructions. Luminescence was determined using a Cytation 5 reader and Gen5 software package (BioTek™). For U87 and U138 cell lines, one thousand cells were plated per well in a standard 96-well plate and allowed to attach for 24 hours before exposure to concentrations of vehicle, OGM2, or TMZ. Cells were treated for 72 hours and then stained with DAPI. A 10× magnification lens on a LionheartFX (BioTek™) was used to image the wells, and images were stitched together with Gen5 software (BioTek™). Automated nuclei counting was also done using the Gen5 software. Results reported as percent response relative to DMSO control. IC50 (the concentration causing 50% inhibition) was determined by GraphPad Prism™ version 6.07.
See FIG. 56, FIG. 55E, and FIG. 55F. […] Similarly.

U87 [6] = assay: MitoTracker / TMRM staining; format: cell-based, human
Excerpt: Lipid peroxidation associated with ferroptosis is known to disrupt mitochondrial membranes, resulting in smaller mitochondria.

T2 sequence (P25025 whole entry, species assumed): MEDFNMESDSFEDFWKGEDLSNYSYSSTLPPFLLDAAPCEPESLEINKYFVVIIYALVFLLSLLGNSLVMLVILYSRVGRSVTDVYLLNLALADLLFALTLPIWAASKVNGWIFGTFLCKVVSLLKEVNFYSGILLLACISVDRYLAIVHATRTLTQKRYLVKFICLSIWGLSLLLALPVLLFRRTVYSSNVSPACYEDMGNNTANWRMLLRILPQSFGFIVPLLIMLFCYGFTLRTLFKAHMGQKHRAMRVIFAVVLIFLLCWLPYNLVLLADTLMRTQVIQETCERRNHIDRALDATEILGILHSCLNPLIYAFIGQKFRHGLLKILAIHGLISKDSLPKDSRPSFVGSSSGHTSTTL
T13 sequence (O14843 whole entry, species assumed): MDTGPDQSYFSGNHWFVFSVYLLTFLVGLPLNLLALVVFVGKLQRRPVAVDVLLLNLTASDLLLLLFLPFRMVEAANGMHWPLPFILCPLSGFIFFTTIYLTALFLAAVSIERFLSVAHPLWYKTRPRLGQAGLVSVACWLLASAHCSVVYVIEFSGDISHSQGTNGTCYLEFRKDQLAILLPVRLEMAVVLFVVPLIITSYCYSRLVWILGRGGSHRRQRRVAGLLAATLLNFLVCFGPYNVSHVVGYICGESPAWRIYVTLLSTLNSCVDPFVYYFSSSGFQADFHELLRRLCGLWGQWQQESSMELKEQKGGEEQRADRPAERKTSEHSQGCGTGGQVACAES
T14 sequence (P30559 whole entry): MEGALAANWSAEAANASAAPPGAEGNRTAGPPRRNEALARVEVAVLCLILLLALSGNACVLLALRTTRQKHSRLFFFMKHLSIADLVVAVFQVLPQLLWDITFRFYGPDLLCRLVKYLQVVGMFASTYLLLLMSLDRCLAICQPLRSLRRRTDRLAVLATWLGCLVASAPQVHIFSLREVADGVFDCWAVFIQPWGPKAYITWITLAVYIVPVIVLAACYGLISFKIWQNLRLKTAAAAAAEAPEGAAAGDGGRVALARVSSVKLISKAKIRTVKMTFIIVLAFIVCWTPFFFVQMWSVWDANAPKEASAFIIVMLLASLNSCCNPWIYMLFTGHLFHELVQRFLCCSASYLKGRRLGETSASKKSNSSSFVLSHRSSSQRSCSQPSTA
T11 sequence (Q96G91 whole entry, species assumed): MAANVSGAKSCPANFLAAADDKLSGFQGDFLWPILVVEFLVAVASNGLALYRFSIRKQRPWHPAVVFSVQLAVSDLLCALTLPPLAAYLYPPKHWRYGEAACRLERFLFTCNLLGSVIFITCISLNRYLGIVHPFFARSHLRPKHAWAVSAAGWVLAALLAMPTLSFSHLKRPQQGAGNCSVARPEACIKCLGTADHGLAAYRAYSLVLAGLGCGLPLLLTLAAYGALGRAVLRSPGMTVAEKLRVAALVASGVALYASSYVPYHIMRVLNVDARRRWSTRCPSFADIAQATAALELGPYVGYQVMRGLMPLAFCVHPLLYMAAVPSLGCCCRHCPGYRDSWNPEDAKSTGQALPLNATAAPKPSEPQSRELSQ
T8 sequence (O95136 whole entry, species assumed): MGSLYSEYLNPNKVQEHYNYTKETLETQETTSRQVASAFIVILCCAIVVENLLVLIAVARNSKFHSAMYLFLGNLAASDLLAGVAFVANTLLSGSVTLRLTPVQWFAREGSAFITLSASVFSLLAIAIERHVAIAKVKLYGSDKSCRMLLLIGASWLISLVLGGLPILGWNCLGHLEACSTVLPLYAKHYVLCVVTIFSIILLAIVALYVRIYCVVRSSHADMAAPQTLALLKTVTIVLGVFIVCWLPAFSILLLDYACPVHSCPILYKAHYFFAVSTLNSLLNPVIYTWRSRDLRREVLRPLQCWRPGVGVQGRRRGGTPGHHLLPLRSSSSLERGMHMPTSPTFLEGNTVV
T3 sequence (P41180 20-1078): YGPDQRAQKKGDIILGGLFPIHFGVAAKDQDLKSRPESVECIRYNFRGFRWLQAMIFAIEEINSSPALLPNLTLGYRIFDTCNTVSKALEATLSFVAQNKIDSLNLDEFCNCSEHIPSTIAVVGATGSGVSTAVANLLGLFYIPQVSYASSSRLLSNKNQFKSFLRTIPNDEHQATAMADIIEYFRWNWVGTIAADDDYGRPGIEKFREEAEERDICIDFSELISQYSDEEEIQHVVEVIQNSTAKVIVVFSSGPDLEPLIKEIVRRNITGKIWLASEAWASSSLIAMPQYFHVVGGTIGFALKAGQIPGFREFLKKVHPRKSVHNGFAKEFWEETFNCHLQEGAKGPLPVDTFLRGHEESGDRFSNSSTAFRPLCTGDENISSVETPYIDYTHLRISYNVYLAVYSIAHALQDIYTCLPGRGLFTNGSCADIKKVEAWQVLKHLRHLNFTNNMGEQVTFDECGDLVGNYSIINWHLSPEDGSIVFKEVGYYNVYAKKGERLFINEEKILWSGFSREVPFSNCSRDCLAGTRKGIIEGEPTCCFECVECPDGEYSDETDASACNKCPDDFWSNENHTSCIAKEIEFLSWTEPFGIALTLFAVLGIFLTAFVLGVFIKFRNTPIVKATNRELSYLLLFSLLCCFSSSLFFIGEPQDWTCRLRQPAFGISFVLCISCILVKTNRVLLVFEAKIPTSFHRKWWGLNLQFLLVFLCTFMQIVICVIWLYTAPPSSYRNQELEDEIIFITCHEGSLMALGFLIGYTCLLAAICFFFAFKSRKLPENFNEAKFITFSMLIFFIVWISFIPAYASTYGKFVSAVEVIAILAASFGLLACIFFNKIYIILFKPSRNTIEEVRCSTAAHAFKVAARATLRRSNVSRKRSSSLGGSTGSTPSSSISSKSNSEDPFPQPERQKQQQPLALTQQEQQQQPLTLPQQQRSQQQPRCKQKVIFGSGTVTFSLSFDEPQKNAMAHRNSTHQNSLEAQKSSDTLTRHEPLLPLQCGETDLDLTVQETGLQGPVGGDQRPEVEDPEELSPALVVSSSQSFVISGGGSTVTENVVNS
T5 sequence (O15197 32-1021): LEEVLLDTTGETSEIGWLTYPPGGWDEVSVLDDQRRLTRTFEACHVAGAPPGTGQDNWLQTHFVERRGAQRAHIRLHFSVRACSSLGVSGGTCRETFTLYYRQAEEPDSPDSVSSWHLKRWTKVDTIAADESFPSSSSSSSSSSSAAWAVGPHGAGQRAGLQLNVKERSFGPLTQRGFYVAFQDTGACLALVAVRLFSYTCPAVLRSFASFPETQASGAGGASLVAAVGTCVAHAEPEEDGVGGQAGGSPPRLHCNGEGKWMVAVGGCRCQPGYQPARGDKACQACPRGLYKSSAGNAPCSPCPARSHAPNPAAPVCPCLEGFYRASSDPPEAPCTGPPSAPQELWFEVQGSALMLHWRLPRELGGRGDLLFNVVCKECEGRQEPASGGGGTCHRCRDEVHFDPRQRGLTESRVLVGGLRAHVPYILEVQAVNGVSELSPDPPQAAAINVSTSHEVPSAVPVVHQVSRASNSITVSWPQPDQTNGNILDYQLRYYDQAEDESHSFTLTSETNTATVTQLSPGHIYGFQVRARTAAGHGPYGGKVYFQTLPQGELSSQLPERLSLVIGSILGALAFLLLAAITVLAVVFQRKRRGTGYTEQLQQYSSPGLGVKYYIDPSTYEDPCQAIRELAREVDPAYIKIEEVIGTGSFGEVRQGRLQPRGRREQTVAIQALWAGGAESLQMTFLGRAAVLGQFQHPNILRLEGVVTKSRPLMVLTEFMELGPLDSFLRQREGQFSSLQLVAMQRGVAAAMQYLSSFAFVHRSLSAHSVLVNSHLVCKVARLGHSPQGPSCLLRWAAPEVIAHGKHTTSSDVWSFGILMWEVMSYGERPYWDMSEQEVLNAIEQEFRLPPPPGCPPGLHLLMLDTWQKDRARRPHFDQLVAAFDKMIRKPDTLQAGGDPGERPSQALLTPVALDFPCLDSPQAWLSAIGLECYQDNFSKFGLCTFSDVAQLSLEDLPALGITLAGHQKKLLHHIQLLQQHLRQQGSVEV
T1 sequence (Q07002 whole entry): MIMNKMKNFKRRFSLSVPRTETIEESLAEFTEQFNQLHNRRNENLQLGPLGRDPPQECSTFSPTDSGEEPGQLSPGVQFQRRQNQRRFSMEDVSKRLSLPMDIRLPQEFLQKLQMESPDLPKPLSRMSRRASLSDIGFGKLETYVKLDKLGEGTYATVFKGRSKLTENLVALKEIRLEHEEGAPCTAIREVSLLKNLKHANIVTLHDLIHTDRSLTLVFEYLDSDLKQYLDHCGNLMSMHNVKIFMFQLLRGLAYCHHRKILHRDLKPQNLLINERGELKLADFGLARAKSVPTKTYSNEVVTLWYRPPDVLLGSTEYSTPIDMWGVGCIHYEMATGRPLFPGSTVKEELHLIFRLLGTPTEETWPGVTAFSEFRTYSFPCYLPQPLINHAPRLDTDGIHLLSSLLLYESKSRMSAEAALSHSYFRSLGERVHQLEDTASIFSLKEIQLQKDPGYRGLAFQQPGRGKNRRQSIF
T15 sequence (P00519 242-493 F317I limits assumed): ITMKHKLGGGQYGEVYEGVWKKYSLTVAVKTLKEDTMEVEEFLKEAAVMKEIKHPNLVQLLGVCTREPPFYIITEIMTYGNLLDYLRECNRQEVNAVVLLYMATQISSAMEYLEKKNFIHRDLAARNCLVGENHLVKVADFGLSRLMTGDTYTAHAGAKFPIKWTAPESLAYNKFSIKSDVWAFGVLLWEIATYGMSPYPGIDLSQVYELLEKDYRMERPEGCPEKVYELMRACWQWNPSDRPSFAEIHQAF
CDK9, sequence (P50750 whole entry): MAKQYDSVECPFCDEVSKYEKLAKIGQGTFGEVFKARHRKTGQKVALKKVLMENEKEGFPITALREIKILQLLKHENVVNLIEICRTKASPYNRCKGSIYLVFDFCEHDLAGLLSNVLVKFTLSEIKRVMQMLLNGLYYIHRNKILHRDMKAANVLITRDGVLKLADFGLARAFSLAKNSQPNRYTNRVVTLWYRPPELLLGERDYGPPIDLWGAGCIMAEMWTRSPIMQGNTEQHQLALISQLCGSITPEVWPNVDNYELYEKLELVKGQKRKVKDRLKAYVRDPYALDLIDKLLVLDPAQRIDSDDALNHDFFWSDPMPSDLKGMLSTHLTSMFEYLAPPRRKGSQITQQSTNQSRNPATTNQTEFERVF

CCc1ccc2c(c1)C1(NN=C(c3cccc4ccccc34)S1)C(=O)N2 (centres unmarked) [OGM1, 5-ethyl-5′-naphthalen-1-ylspiro[1H-indole-3,2′-3H-1,3,4-thiadiazole]-2-one] showed a remaining binding at 10 µM (PCTK3) of 99%, an Antagonism (CXCR2; 10 uM) of −3.1 and an Agonism (CXCR2; 12.5 uM) of 0.5. For the same compound, the Antagonism (CaS; 10 uM) was −3.6, the Agonism (CaS; 12.5 uM) was −1.2 and the remaining binding at 10 µM (CDK9) was 98%. For the same compound, the remaining binding at 10 µM (MAP3K15) was 100%, the remaining binding at 10 µM (EPHB6) was 76% and the remaining binding at 10 µM (FLT4) was 100%. The remaining binding at 10 µM [1] was 91%, the Antagonism (S1P2; 10 uM) was −3.3 and the Agonism (S1P2; 12.5 uM) was 0.5. It also gave a remaining binding at 10 µM (EGFR(L858R, T790M)) of 89%, a remaining binding at 10 µM (PIPSK1A) of 100% and an Antagonism (P2Y11; 10 uM) of −8.2. For the same compound, the Agonism (P2Y11; 12.5 uM) was −0.1, the remaining binding at 10 µM (EGFR) was 100% and the Antagonism (GPR41; 10 uM) was 1.9. The Agonism (GPR41; 12.5 uM) was 0.4, the Antagonism (OT; 10 uM) was −2.4 and the Agonism (OT; 12.5 uM) was 0.7. The remaining binding at 10 µM [2] was 82%, the remaining binding at 10 µM (FAK) was 88% and the remaining binding at 10 µM (GRK1) was 100%. It also gave a remaining binding at 10 µM [3] of 100%.

For CCc1ccc2c(c1)C1(NN=C(c3ccccc3)S1)C(=O)N2 (centres unmarked) [OGM2], the “cleaved caspase 3 level” value (U87 [4]) was “did not increase”, the “protein levels of TFRC and HO-1” value (U87 [4]) was “significantly increased” and the CC50 [5] was 0.42 to 2.7 µM. For the same compound, the “mitochondrial membrane potential (TMRM)” value (U87 [6]) was “decreased mitochondrial membrane potential”.
